In patent US12522851B2, “Method for purifying indole-3-lactic acid from Lactobacillus plantarum fermentation supernatant” (Zhejiang Gongshang University, priority 2021, dated 2026):

Assays:
Assay in all cases: Oxford cup method antibacterial activity
Type in all cases: cell-based
Bacillus subtilis BAS2 = settings: 150 μL of 10 mg/ml in 1% acetonitrile aqueous solution, 1% indicator bacteria, read-out: Diameter of inhibition zone
Method: (§1) The antibacterial activity of indole-3-lactic acid obtained by purification in step III in Embodiment 2 (i.e., concentrated H4 with a purity of 99.00%) was determined by an oxford cup method. 1% (volume concentration) of indicator bacteria was added to 150 μL of 10 mg/ml indole-3-lactic acid (dissolved in 1% acetonitrile aqueous solution). […] Listeria monocytogenes LM1, Bacillus subtilis BAS2, Salmonella paratyphi B CMCC50094, Salmonella paratyphi A CMCC50093, Salmonella enterica subsp. arizonae CMCC (B) 47001 and Salmonella typhimurium CMCC50015 were purchased from National Center for Medical Culture Collections (CMCC). Escherichia coli DH5a was purchased from Sangon Biotech (Shanghai) Co., Ltd. Staphylococcus aureus ATCC25923, Pseudomonas aeruginosa ATCC47085, Salmonella enterica subsp. enterica ATCC14028 and Salmonella choleraseuis ATCC13312 were purchased from American Type Culture Collection (ATCC). Micrococcus luteus CICC 10209 was purchased from China Center of Industrial Culture Collection (CICC). Staphylococcus citreus LC5 was purchased from China Center for Type Culture Collection (CCTCC). Staphylococcus simulans, Staphylococcus warneri, Staphylococcus carnosus pCA44 and Staphylococcus carnosus pot20 were presented by Professor Eefjan Breukink of Utrecht University in the Netherlands.

[1] = tested on: Salmonella enterica subsp. arizonae CMCC(B)47001; settings: 150 μL of 10 mg/ml in 1% acetonitrile aqueous solution, 1% indicator bacteria, read-out: Diameter of inhibition zone
Method: as §1

Staphylococcus simulans = settings: 150 μL of 10 mg/ml in 1% acetonitrile aqueous solution, 1% indicator bacteria, read-out: Diameter of inhibition zone
Method: as §1

[2] = tested on: Salmonella choleraseuis ATCC13312; settings: 150 μL of 10 mg/ml in 1% acetonitrile aqueous solution, 1% indicator bacteria, read-out: Diameter of inhibition zone
Method: as §1

[3] = tested on: Salmonella paratyphi B CMCC50094; settings: Salmonella enterica, 150 μL of 10 mg/ml in 1% acetonitrile aqueous solution, 1% indicator bacteria, read-out: Diameter of inhibition zone
Method: as §1

[4] = tested on: Staphylococcus citreus LC5; settings: 150 μL of 10 mg/ml in 1% acetonitrile aqueous solution, 1% indicator bacteria, read-out: Diameter of inhibition zone
Method: as §1

[5] = tested on: Salmonella enterica subsp. enterica ATCC14028; settings: 150 μL of 10 mg/ml in 1% acetonitrile aqueous solution, 1% indicator bacteria, read-out: Diameter of inhibition zone
Method: as §1

[6] = tested on: Salmonella paratyphi A CMCC50093; settings: Salmonella enterica, 150 μL of 10 mg/ml in 1% acetonitrile aqueous solution, 1% indicator bacteria, read-out: Diameter of inhibition zone
Method: as §1

[7] = tested on: Pseudomonas aeruginosa ATCC47085; settings: 150 μL of 10 mg/ml in 1% acetonitrile aqueous solution, 1% indicator bacteria, read-out: Diameter of inhibition zone
Method: as §1

[8] = tested on: Staphylococcus carnosus pCA44; settings: PCA44, read-out: Diameter of inhibition zone
Method: as §1

[9] = tested on: Listeria monocytogenes LM1; settings: 150 μL of 10 mg/ml in 1% acetonitrile aqueous solution, 1% indicator bacteria, read-out: Diameter of inhibition zone
Method: as §1

[10] = tested on: Staphylococcus aureus ATCC25923; settings: 150 μL of 10 mg/ml in 1% acetonitrile aqueous solution, 1% indicator bacteria, read-out: Diameter of inhibition zone
Method: as §1

Escherichia coli DH5α = settings: 150 μL of 10 mg/ml in 1% acetonitrile aqueous solution, 1% indicator bacteria, read-out: Diameter of inhibition zone
Method: as §1

[11] = tested on: Micrococcus luteus CICC 10209; settings: CICC10209, 150 μL of 10 mg/ml in 1% acetonitrile aqueous solution, 1% indicator bacteria, read-out: Diameter of inhibition zone
Method: as §1

[12] = tested on: Staphylococcus carnosus pot20; settings: 150 μL of 10 mg/ml in 1% acetonitrile aqueous solution, 1% indicator bacteria, read-out: Diameter of inhibition zone
Method: as §1

Staphylococcus warneri = settings: 150 μL of 10 mg/ml in 1% acetonitrile aqueous solution, 1% indicator bacteria, read-out: Diameter of inhibition zone
Method: as §1

[13] = tested on: Salmonella typhimurium CMCC50015; settings: Salmonella enterica, 150 μL of 10 mg/ml in 1% acetonitrile aqueous solution, 1% indicator bacteria, read-out: Diameter of inhibition zone
Method: as §1

O=C(O)C(O)Cc1c[nH]c2ccccc12 (centres unmarked) [indole-3-lactic acid, Indole-3-lactic acid]
zone of inhibition at 10000 µg/mL (Bacillus subtilis BAS2): 15.67 ± 0.01 mm
zone of inhibition at 10000 µg/mL [1]: 13.4 ± 0.45 mm
zone of inhibition at 10000 µg/mL (Staphylococcus simulans): 13.4 ± 0.25 mm
zone of inhibition at 10000 µg/mL [2]: 13.6 ± 0.23 mm
zone of inhibition at 10000 µg/mL [3]: 13.2 ± 0.21 mm
zone of inhibition at 10000 µg/mL [4]: 13.06 ± 0.08 mm
zone of inhibition at 10000 µg/mL [5]: 12.8 ± 0.17 mm
zone of inhibition at 10000 µg/mL [6]: 15.06 ± 0.08 mm
zone of inhibition at 10000 µg/mL [7]: 10.66 ± 0.08 mm
zone of inhibition at 10000 µg/mL [8]: 16.4 ± 0.27 mm
zone of inhibition at 10000 µg/mL [9]: 10.95 ± 0.07 mm
zone of inhibition at 10000 µg/mL [10]: 13.4 ± 0.25 mm
zone of inhibition at 10000 µg/mL (Escherichia coli DH5α): 12.5 ± 0.17 mm
zone of inhibition at 10000 µg/mL [11]: 19.1 ± 0.76 mm
zone of inhibition at 10000 µg/mL [12]: 15 ± 0.55 mm
zone of inhibition at 10000 µg/mL (Staphylococcus warneri): 18.76 ± 0.06 mm
zone of inhibition at 10000 µg/mL [13]: 12.7 ± 0.18 mm
